From patent US8003655B2, “Substituted sulphoximines as TIE2 inhibitors and salts thereof, pharmaceutical compositions comprising same, methods of preparing same and uses of same” (Bayer Schering Pharma AG, priority 2006, dated 2011) come the findings set out here.

Common to all, as to assay type: biochemical
Test [1] addresses T1, Tie2 (Homo sapiens, UniProt Q02763).
T1 construct: A recombinant fusion protein of GST and the intracellular domains of Tie2; GST; made in house; host or cells: insect cells (Hi-5)
Briefly: Tie2-Kinase HTRF-Assay without kinase preactivation (assay 2). The following applies: 10 μM ATP, pIC50 = −log IC50 in molar concentration, read-out: Tie 2 activity (assay 2). The source says:
Tie2-inhibitory activity of compounds of the present invention was quantified employing two Tie2 HTRF assay as described in the following paragraphs.
A recombinant fusion protein of GST and the intracellular domains of Tie2, expressed in insect cells (Hi-5) and purified by Glutathion-Sepharose affinity chromatography was used as kinase. Alternatively, commercially available GST-Tie2-fusion protein (Upstate Biotechnology, Dundee, Scotland) can be used as substrate for the kinase reaction the biotinylated peptide biotin-Ahx-EPKDDAYPLYSDFG (C-terminus in amid form) was used which can be purchased e.g. from the company Biosynthan GmbH (Berlin-Buch, Germany). Detection of phosphorylated product is achieved specifically by a trimeric detection complex consisting of the phosphorylated substrate, streptavidin-XLent (SA-XLent) which binds to biotin, and Europium Cryptate-labeled anti-phosphotyrosine antibody PT66 which binds to phosphorylated tyrosine.
Tie2 (3.5 ng/measurement point) was incubated for 60 min at 22° C. in the presence of 10 μM adenosine-tri-phosphate (ATP) and 1 μM substrate peptide (biotin-Ahx-EPKDDAYPLYSDFG-NH2) with different concentrations of test compounds (0 μM and concentrations in the range 0.001-20 μM) in 5 μl assay buffer [50 mM Hepes/NaOH pH 7, 10 mM MgCl2, 0.5 mM MnCl2, 1.0 mM dithiothreitol, 0.01% NP40, protease inhibitor mixture (“Complete w/o EDTA” from Roche, 1 tablet per 2.5 ml), 1% (v/v) dimethylsulfoxide]. The reaction was stopped by the addition of 5 μl of an aqueous buffer (25 mM Hepes/NaOH pH 7.5, 0.28% (w/v) bovine serum albumin) containing EDTA (90 mM) and the HTRF (Homogeneous Time Resolved Fluorescence) detection reagents streptavidine-XLent (0.2 μM, from Cis Biointernational, Marcoule, France) and PT66-Eu-Chelate (0.3 ng/μl; a europium-chelate labelled anti-phospho-tyrosine antibody from Perkin Elmer).
(§1) The resulting mixture was incubated 1 h at 22° C. to allow the binding of the biotinylated phosphorylated peptide to the streptavidine-XLent and the PT66-Eu-Chelate. Subsequently the amount of phosphorylated substrate peptide was evaluated by measurement of the resonance energy transfer from the PT66-Eu-Chelate to the streptavidine-XLent. Therefore, the fluorescence emissions at 620 nm and 665 nm after excitation at 350 nm was measured in a HTRF reader, e.g. a Rubystar (BMG Labtechnologies, Offenburg, Germany) or a Viewlux (Perkin-Elmer). The ratio of the emissions at 665 nm and at […] was taken as the measure for the amount of phosphorylated substrate peptide. The data were normalised (enzyme reaction without inhibitor=0% inhibition, all other assay components but no enzyme=100% inhibition) and IC50 values were calculated by a 4 parameter fit using an inhouse software.

Test [2] addresses T2, preactivated Tie2 (Homo sapiens, UniProt Q02763).
T2 construct: A recombinant fusion protein of GST and the intracellular domains of Tie2; GST; made in house; host or cells: insect cells (Hi-5)
Description: Tie2-Kinase HTRF-Assay with kinase preactivation (assay 3). The note with it: 10 μM ATP, pIC50 = −log IC50 in molar concentration, read-out: Tie 2 activity (assay 3). As to the method: Assay 3: Tie2-Kinase HTRF-Assay with Kinase Preactivation
A recombinant fusion protein of GST and the intracellular domains of Tie2, expressed in insect cells (Hi-5) and purified by Glutathion-Sepharose affinity chromatography was used as kinase. As substrate for the kinase reaction the biotinylated peptide biotin-Ahx-EPKDDAYPLYSDFG (C-terminus in amid form) was used which can be purchased e.g. from the company Biosynthan GmbH (Berlin-Buch, Germany).
For activation, Tie2 was incubated at a conc. 12.5 ng/μl of for 20 min at 22° C. in the presence of 250 μM adenosine-tri-phosphate (ATP) in assay buffer [50 mM Hepes/NaOH pH 7, 10 mM MgCl2, 0.5 mM MnCl2, 1.0 mM dithiothreitol, 0.01% NP40, protease inhibitor mixture (“Complete w/o EDTA” from Roche, 1 tablet per 2.5 ml)].
For the subsequent kinase reaction, the preactivated Tie2 (0.5 ng/measurement point) was incubated for 20 min at 22° C. in the presence of 10 μM adenosine-tri-phosphate (ATP) and 1 μM substrate peptide (biotin-Ahx-EPKDDAYPLYSDFG-NH2) with different concentrations of test compounds (0 μM and concentrations in the range 0.001-20 μM) in 5 μl assay buffer [50 mM Hepes/NaOH pH 7, 10 mM MgCl2, 0.5 mM MnCl2, 0.1 mM sodium ortho-vanadate, 1.0 mM dithiothreitol, 0.01% NP40, protease inhibitor mixture (“Complete w/o EDTA” from Roche, 1 tablet per 2.5 ml), 1% (v/v) dimethylsulfoxide]. The reaction was stopped by the addition of 5 μl of an aqueous buffer (25 mM Hepes/NaOH pH 7.5, 0.28% (w/v) bovine serum albumin) containing EDTA (90 mM) and the HTRF (Homogeneous Time Resolved Fluorescence) detection reagents streptavidine-XLent (0.2 μM, from Cis Biointernational, Marcoule, France) and PT66-Eu-Chelate (0.3 ng/μl; a europium-chelate labelled anti-phospho-tyrosine antibody from Perkin Elmer).
as §1
In general terms: TR-FRET usually uses a lanthanide donor and a delayed reading to cut background.

Test [3] concerns the target T3, CDK2/CycE (Homo sapiens, UniProt P24941).
T3 construct: GST; purchased ProQinase GmbH (Freiburg, Germany); host or cells: insect cells (Sf9)
Description: CDK2 HTRF Assay (assay 4). The note with it: 10 μM ATP, pIC50 = −log IC50 in molar concentration. An excerpt:
CDK2/CycE-inhibitory activity of compounds of the present invention was quantified employing the CDK2/CycE HTRF assay as described in the following paragraphs.
Recombinant fusion proteins of GST and human CDK2 and of GST and human CycE, expressed in insect cells (Sf9) and purified by Glutathion-Sepharose affinity chromatography, were purchase from ProQinase GmbH (Freiburg, Germany). As substrate for the kinase reaction biotinylated peptide biotin-Ttds-YISPLKSPYKISEG (C-terminus in amid form) was used which can be purchased e.g. form the company JERINI peptide technologies (Berlin, Germany).
CDK2/CycE was incubated for 60 min at 22° C. in the presence of different concentrations of test compounds in 5 μl assay buffer [50 mM Tris/HCl pH 8.0, 10 mM MgCl2, 1.0 mM dithiothreitol, 0.1 mM sodium ortho-vanadate, 10 μM adenosine-tri-phosphate (ATP), 0.75 μM substrate, 0.01% (v/v) Nonidet-P40 (Sigma), 1% (v/v) dimethylsulfoxide]. The concentration of CDK2/CycE was adjusted depending of the activity of the enzyme lot and was chosen appropriate to have the assay in the linear range, typical concentrations were in the range of 1 ng/ml. The reaction was stopped by the addition of 5 μl of a solution of HTRF detection reagents (0.2 μM streptavidine-XLent and 3.4 nM Phospho-(Ser) CDKs Substrate Antibody [product #2324B, Cell Signalling Technology, Danvers, Mass., USA} and 4 nM Prot-A-EuK [Protein A labeled with Europium Cryptate from Cis biointernational, France, product no. 61PRAKLB]) in an aqueous EDTA-solution (100 mM EDTA, 800 mM KF, 0.2% (w/v) bovine serum albumin in 100 mM HEPES/NaOH pH 7.0).

Each structure is given as a SMILES string.

T1 sequence (Q02763 770-1124 limits assumed): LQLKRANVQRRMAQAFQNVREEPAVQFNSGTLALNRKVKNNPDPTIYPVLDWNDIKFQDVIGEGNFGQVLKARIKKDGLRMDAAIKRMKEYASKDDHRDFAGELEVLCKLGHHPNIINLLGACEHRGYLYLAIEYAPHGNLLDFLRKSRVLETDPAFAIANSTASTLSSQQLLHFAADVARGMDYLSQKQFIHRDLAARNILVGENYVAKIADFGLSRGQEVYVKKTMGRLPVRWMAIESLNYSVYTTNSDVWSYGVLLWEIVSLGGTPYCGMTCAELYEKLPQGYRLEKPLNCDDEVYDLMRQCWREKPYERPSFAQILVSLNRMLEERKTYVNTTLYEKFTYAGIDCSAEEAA
T2 sequence (Q02763 770-1124 limits assumed): as above

Regarding `CCOC(=O)N=S(C)(=O)c1cccc(Nc2ncc(-c3ccc(NC(=O)Nc4cc(C(F)(F)F)ccc4F)c(F)c3)c(OC)n2)c1` (racemic) [Example 31, 1-{4-[2-({3-[(RS)-N-(Ethoxycarbonyl)-S-methylsulfonimidoyl]phenyl}amino)-4-(methoxy)-pyrimidin-5-yl]-2-fluorophenyl}-3-[2-fluoro-5-(trifluoromethyl)-phenyl]urea], the IC50 in test [1] was < 100 nM; in test [2], < 100 nM; in test [3], > 10 µM.
